Converted amounts (≈) assume the structure as drawn. “Also recorded” adds a separate entry of the source.
Experiments:
B. cereus ATCC 9634 = assay: antimicrobial spectrum, broth dilution method; assay type: cell-based; settings: Bacillus cereus, ATCC9634, read-out: Minimum Inhibitory Concentration
Method: (§1) 1. The antimicrobial spectrum of aclacinomycins A and B was determined by the broth dilution method as follows: […]

B. megaterium = assay: antimicrobial spectrum, broth dilution method; assay type: cell-based; settings: Priestia megaterium, read-out: Minimum Inhibitory Concentration
Method: as §1

[1] = system: Bacillus subtilis ATCC 6633; assay: antimicrobial spectrum, broth dilution method; assay type: cell-based; settings: ATCC6633, read-out: Minimum Inhibitory Concentration
Method: as §1

Can tropicalis IAM 4924 = assay: antimicrobial spectrum, broth dilution method; assay type: cell-based; settings: read-out: Minimum Inhibitory Concentration
Method: as §1

Can. albicans IAM 4905 = assay: antimicrobial spectrum, broth dilution method; assay type: cell-based; settings: Candida albicans, IAM4905, read-out: Minimum Inhibitory Concentration
Method: as §1

Cory. bovis 1810 = assay: antimicrobial spectrum, broth dilution method; assay type: cell-based; settings: Corynebacterium bovis, 1810, read-out: Minimum Inhibitory Concentration
Method: as §1

Diplo. pneumoniae Type 1 = assay: antimicrobial spectrum, broth dilution method; assay type: cell-based; settings: Streptococcus pneumoniae, TYPE1, read-out: Minimum Inhibitory Concentration
Method: as §1

Diplo. pneumoniae Type 3 = assay: antimicrobial spectrum, broth dilution method; assay type: cell-based; settings: Streptococcus pneumoniae, TYPE3, read-out: Minimum Inhibitory Concentration
Method: as §1

E. coli K12 = assay: antimicrobial spectrum, broth dilution method; assay type: cell-based; settings: Escherichia coli, K12, read-out: Minimum Inhibitory Concentration
Method: as §1

[2] = system: Kl. pneumoniae ATCC 10031; assay: antimicrobial spectrum, broth dilution method; assay type: cell-based; settings: Klebsiella pneumoniae, ATCC10031, read-out: Minimum Inhibitory Concentration
Method: as §1

Mic. flavus = assay: antimicrobial spectrum, broth dilution method; assay type: cell-based; settings: Micrococcus flavus, read-out: Minimum Inhibitory Concentration
Method: as §1

[3] = system: Mycobact. smegmatis ATCC 607; assay: antimicrobial spectrum, broth dilution method; assay type: cell-based; settings: read-out: Minimum Inhibitory Concentration
Method: as §1

Ps. aeruginosa A20229 = assay: antimicrobial spectrum, broth dilution method; assay type: cell-based; settings: Pseudomonas aeruginosa, A20229, read-out: Minimum Inhibitory Concentration
Method: as §1

Sar. lutea ATCC 9341 = assay: antimicrobial spectrum, broth dilution method; assay type: cell-based; settings: Micrococcus luteus, ATCC9341, read-out: Minimum Inhibitory Concentration
Method: as §1

St. pyogenes NY 5 = assay: antimicrobial spectrum, broth dilution method; assay type: cell-based; settings: Streptococcus pyogenes, NY5, read-out: Minimum Inhibitory Concentration
Method: as §1

Staph. aureus FDA 209P = assay: antimicrobial spectrum, broth dilution method; assay type: cell-based; settings: Staphylococcus aureus, FDA209P, read-out: Minimum Inhibitory Concentration
Method: as §1

Staph. aureus Smith = assay: antimicrobial spectrum, broth dilution method; assay type: cell-based; settings: Staphylococcus aureus, read-out: Minimum Inhibitory Concentration
Method: as §1

Strept. faecalis = assay: antimicrobial spectrum, broth dilution method; assay type: cell-based; settings: Enterococcus faecalis, read-out: Minimum Inhibitory Concentration
Method: as §1

[4] = system: Gram-positive bacteria and yeasts; assay: antimicrobial activity (summary in words); assay type: cell-based
[5] = system: P388 cells or L1210 cells; assay: survival of BDF1 mice inoculated with P388 or L1210 cells; assay type: in vivo; settings: for T/C / 30 day survivors / Mean survival time: daily for 10 days; for 30 day survivors: control 0/8; for Mean survival time: control 10.0
Method: 2. […] For example, when BDF1 mice weighing 18 to 22 grams are inoculated with 1 × 10^6 cells of P388 cells or 5 × 10^5 cells of L1210 cells intraperitoneally and aclacinomycin A and B and aclacinomycin A-DNA complex are administered intraperitoneally once daily for 10 days consecutively 24 hours after the inoculation, the survival time of the mice is prolonged remarkably at the rate of over 150% in a dosage range of 0.5 to 5 mg./kg. of body weight per day compared with control mice receiving no antibiotic, as shown in the following table: […]

[6] = acute toxicity, single injection; assay type: in vivo, Mouse; settings: mouse, in vivo, single injection
Mouse = assay: acute toxicity, single injection; assay type: in vivo; settings: mice
rabbits = assay: lethal dose (LD50) on rabbits; assay type: in vivo
hamsters = assay: acute cardiac alterations in the electrocardiograms of hamsters / cardiotoxicity; settings: hamster, in vivo
[7] = system: RNA synthesis (L1210 cells); assay: cells; assay type: cell-based, mice
[8] = system: Protein synthesis (L1210 cells); assay: cells; assay type: cell-based, mice; settings: Mus musculus, L1210, 1 h; 14C-precursor incorporation, 37° C., 60 min.; read-out: ID50, Protein synthesis
Vaccinia virus = assay: microbe, parasite or virus in culture; assay type: cell-based
[9] = system: nucleic acid biosynthesis (L1210 cells); assay type: cell-based, mice; settings: below 1 mcg./ml. in the medium, 60 min.
lymphoma 6C3HED = lymphoma 6C3HED in mice (summary in words); assay type: in vivo
leukemia L1210 = leukemia L1210 in mice (summary in words); assay type: in vivo
leukemia P388 = leukemia P388 in mice (summary in words); assay type: in vivo
various animal tumors = assay: antitumor activity in animal tumors (summary in words); assay type: in vivo; settings: experimental animal tumors
[10] = system: cultured mammalian tumor cells; assay: growth of tumor cells in culture (summary in words); assay type: cell-based
[11] = basicity and lipophilicity

Molecule `CCC1(O)CC(OC2CC(N(C)C)C(OC3CC4OC5CC(=O)C(C)OC5OC4C(C)O3)C(C)O2)c2c(cc3c(c2O)C(=O)c2c(O)cccc2C3=O)C1C(=O)OC` (centres unmarked) [Aclacinomycin B] has an MIC (B. cereus ATCC 9634) of under 0.2 µg/mL, an MIC (B. megaterium) of under 0.2 µg/mL and an MIC [1] of under 0.2 µg/mL. For the same molecule, the MIC (Can tropicalis IAM 4924) was 20 µg/mL (≈ 24.7 µM), the MIC (Can. albicans IAM 4905) was 10 µg/mL (≈ 12.3 µM) and the MIC (Cory. bovis 1810) was under 0.2 µg/mL. It also gave an MIC (Diplo. pneumoniae Type 1) of 0.63 µg/mL (≈ 0.778 µM), an MIC (Diplo. pneumoniae Type 3) of 0.63 µg/mL (≈ 0.778 µM) and an MIC (E. coli K12) of over 100 µg/mL. The MIC [2] was over 100 µg/mL, the MIC (Mic. flavus) was under 0.2 µg/mL and the MIC [3] was 5 µg/mL (≈ 6.17 µM). For the same molecule, the MIC (Ps. aeruginosa A20229) was over 100 µg/mL, the MIC (Sar. lutea ATCC 9341) was under 0.2 µg/mL and the MIC (St. pyogenes NY 5) was 1.25 µg/mL (≈ 1.54 µM). For the same molecule, the MIC (Staph. aureus FDA 209P) was under 0.2 µg/mL, the MIC (Staph. aureus Smith) was under 0.2 µg/mL and the MIC (Strept. faecalis) was 2.5 µg/mL (≈ 3.09 µM). The antimicrobial activity [4] was “effective in inhibiting the growth; also recorded: strong antimicrobial activity”, the T/C ([5]; 0.5 mg./kg./day i.p.) was 147% and the 30 day survivors ([5]; 0.5 mg./kg./day i.p.) was 0/4. For the same molecule, the Mean survival time ([5]; 0.5 mg./kg./day i.p.) was 14.7 days, the T/C ([5]; 1.0 mg./kg./day i.p.) was 190% and the 30 day survivors ([5]; 1.0 mg./kg./day i.p.) was 1/4. The Mean survival time ([5]; 1.0 mg./kg./day i.p.) was 19.0 days, the T/C ([5]; 2.0 mg./kg./day i.p.) was 175% and the 30 day survivors ([5]; 2.0 mg./kg./day i.p.) was 0/4. The Mean survival time ([5]; 2.0 mg./kg./day i.p.) was 17.5 days, the T/C ([5]; 4.0 mg./kg./day i.p.) was 85% and the 30 day survivors ([5]; 4.0 mg./kg./day i.p.) was 0/4. The Mean survival time ([5]; 4.0 mg./kg./day i.p.) was 8.5 days, the “survival time prolonged, rate compared with control mice” value ([5]; dosage range 0.5 to 5 mg./kg. per day, i.p. daily for 10 days) was “over 150%” and the LD50 ([6]; ip, intraperitoneal) was 13.7 mg/kg. For the same molecule, the LD50 ([6]; intravenous) was 16.4 mg/kg, the “lethal dose (LD50), in words” value (Mouse) was “high lethal dose” and the “lethal dose (LD50), in words” value (rabbits) was “high lethal dose”. The cardiotoxicity on hamsters (hamsters) was “extremely low cardiotoxicity”, the “inhibition of RNA synthesis (in words)” value [7] was “specific inhibition on RNA synthesis” and the IC50 ([7]; Mus musculus, L1210, 1 h, 14C-precursor incorporation, 37° C., 60 min., read-out: ID50, RNA synthesis) was 0.2 µg/mL (≈ 0.247 µM). For the same molecule, the IC50 [8] was 12 µg/mL (≈ 14.8 µM), the “inhibition of growth of vaccinia virus (in words)” value (Vaccinia virus) was “effective in inhibiting the growth” and the IC50 (Vaccinia virus; Orthopoxvirus vaccinia, HeLa, read-out: ID50, Vaccinia virus) was under 10 µg/mL. The “inhibition of nucleic acid biosynthesis” value [9] was “over 50%”, the “life prolongation, mice inoculated with lymphoma 6C3HED” value (lymphoma 6C3HED) was “markedly prolong the lives” and the “inhibition of growth of leukemia L1210” value (leukemia L1210) was “effective in inhibiting the growth”. The “life prolongation, mice inoculated with leukemia L1210” value (leukemia L1210) was “markedly prolong the lives”, the “inhibition of growth of leukemia P388” value (leukemia P388) was “effective in inhibiting the growth” and the “life prolongation, mice inoculated with leukemia P388” value (leukemia P388) was “markedly prolong the lives”. For the same molecule, the “antitumor activity (in words)” value (various animal tumors) was “marked inhibitory effects; also recorded: potent antitumor activity”, the “inhibition of growth of tumor cells in culture (in words)” value [10] was “remarkable inhibitory effect” and the “solubility in acidic water” value (solubility; acidic water) was “soluble”. The “solubility in low polar solvents” value (solubility; ether, hexane, cyclohexane, petroleum ether as listed) was “insoluble”, the “solubility in organic solvents” value (solubility; methanol, ethanol, chloroform, ethyl acetate, acetone etc.) was “soluble” and the solubility in water (solubility; water) was “slightly soluble”. For the same molecule, the basicity [11] was “weakly basic” and the lipophilicity [11] was “lipophilic”.

From patent publication US4071411A, “Antitumor antibiotics aclacinomycins A and B [RD-9187A]” (priority 1974, dated 1978)
